Test results: PubChem BioAssay (NCI)
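Compound exposure: 48 hours, 5 concentrations, 96-well plates. GI50 marks 50% less growth. The concentration for full growth arrest is given as TGI.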

Columns and labels:
Experiment in all cases: growth of human tumour cells (NCI), 48 h
DU-145 prostate = system: DU-145 prostate
RXF 393 renal = system: RXF 393 renal
786-0 renal = system: 786-0 renal
SK-MEL-5 melanoma = system: SK-MEL-5 melanoma
COLO 205 colon = system: COLO 205 colon
NCI-H522 lung = system: NCI-H522 lung
MOLT-4 leukemia = system: MOLT-4 leukemia
UACC-257 melanoma = system: UACC-257 melanoma
NCI-H226 lung = system: NCI-H226 lung
NCI-H460 lung = system: NCI-H460 lung

Row | Compound | GI50 (DU-145 prostate) | TGI (DU-145 prostate) | GI50 (RXF 393 renal) | TGI (RXF 393 renal) | GI50 (786-0 renal) | TGI (786-0 renal) | GI50 (SK-MEL-5 melanoma) | TGI (SK-MEL-5 melanoma) | GI50 (COLO 205 colon) | TGI (COLO 205 colon) | GI50 (NCI-H522 lung) | TGI (NCI-H522 lung) | GI50 (MOLT-4 leukemia) | TGI (MOLT-4 leukemia) | GI50 (UACC-257 melanoma) | TGI (UACC-257 melanoma) | GI50 (NCI-H226 lung) | TGI (NCI-H226 lung) | GI50 (NCI-H460 lung) | TGI (NCI-H460 lung)
1 | CCc1cc(Cc2cc(CC)cc(C(C)(C)C)c2O)c(O)c(C(C)(C)C)c1 | 3.53 µM | 13 µM | 1810 nM | 4.98 µM | 3.5 µM | 14.4 µM | 3.63 µM | 12.7 µM | 1890 nM | 3.56 µM | 2380 nM | 8.29 µM | 3.99 µM | > 100 µM | 2.79 µM | 11.6 µM | 4.88 µM | 16.1 µM | 2590 nM | 6.98 µM
2 | Cc1cnc2n(c1=O)Cc1ccccc1CO2 | 16.6 µM | 32.1 µM | 15200 nM | 36.8 µM | 18.8 µM | 39.4 µM | 15.4 µM | 29.5 µM | 17100 nM | 37.1 µM | 3800 nM | 18.8 µM | 18.3 µM | 39.3 µM | 23 µM | 66 µM | 20.4 µM | 52.5 µM | 17700 nM | 40.2 µM
3 | COc1ccc(/C=C/c2cnnc3ccccc23)cc1OC | – | > 10 µM | – | > 10 µM | – | > 10 µM | – | > 10 µM | – | > 10 µM | – | > 10 µM | – | > 10 µM | – | > 10 µM | – | > 10 µM | – | > 10 µM
4 | COC(=O)c1cccc(COc2ccc([N+](=O)[O-])cc2Cl)c1 | – | > 100 µM | – | > 100 µM | – | > 100 µM | – | > 100 µM | – | > 100 µM | – | > 100 µM | – | > 100 µM | – | > 100 µM | – | > 100 µM | – | > 100 µM
5 | Nc1c(S(=O)(=O)O)cc2c(c1Cl)C(=O)c1ccccc1C2=O | > 100 µM | > 100 µM | > 100000 nM | > 100 µM | > 100 µM | > 100 µM | > 100 µM | > 100 µM | > 100000 nM | > 100 µM | > 100000 nM | > 100 µM | > 100 µM | > 100 µM | > 100 µM | > 100 µM | > 100 µM | > 100 µM | > 100000 nM | > 100 µM
6 | COc1ccc(/C=C2\CCC(CN(C)C)C2=O)cc1 (stereo not given) | – | 5.8 µM | – | 13.6 µM | – | 3.17 µM | – | 16.3 µM | – | 10.4 µM | – | 2.84 µM | – | 6.85 µM | – | 13.3 µM | – | 31.6 µM | – | 36.4 µM
7 | O=P1(NCCCl)OCCC(OO)N1CCCl (stereo not given) | – | > 100 µM | – | 32.4 µM | – | 99.7 µM | – | > 100 µM | – | > 57.3 µM | – | 25.6 µM | – | > 83.4 µM | – | > 82.6 µM | – | > 100 µM | – | > 100 µM
8 | COc1cc(Nc2nccc(-c3cnn4ncccc34)n2)cc(OC)c1 | 0.0724 µM | 2.82 µM | 45.5 nM | 0.131 µM | 0.0861 µM | > 17.6 µM | 0.151 µM | 3.19 µM | 55.3 nM | 0.164 µM | 79 nM | 0.619 µM | 0.0516 µM | 0.165 µM | 0.0844 µM | 0.48 µM | 0.0577 µM | 0.324 µM | 53.9 nM | 2.93 µM
9 | Cc1cccc(C)c1NC(=O)/C(CC(=O)CC(c1ccccc1)c1c(O)c2ccccc2oc1=O)=N/O (stereo not given) | – | > 100 µM | – | > 100 µM | – | > 100 µM | – | > 100 µM | – | > 100 µM | – | > 100 µM | – | > 100 µM | – | > 100 µM | – | > 100 µM | – | > 100 µM
10 | COc1ccc2nc3c(cc2c1)C(=O)CC(C(F)(F)F)C3 (stereo not given) | 0.714 µM | > 100 µM | 562 nM | 5.1 µM | 4.36 µM | > 100 µM | 0.545 µM | 9.75 µM | 958 nM | > 55.9 µM | 490 nM | > 100 µM | 0.108 µM | > 100 µM | > 96.2 µM | > 100 µM | 3.28 µM | > 100 µM | 1870 nM | > 100 µM
